Measurements: ChEMBL document CHEMBL1201862, “PubChem BioAssay data set” (2004)
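Method: 48-hour compound exposure of cells in 96-well plates, five concentrations, linear interpolation of endpoints. GI50 = concentration required for 50% inhibition of growth.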 Calls of active or inactive are those of the source. Cut-off read from the data, not from the text of the source: active = GI50 up to about 1.1 µM and inactive = higher.

What was measured:
Assay in all cases: NCI anticancer screen, dose series, 48 h
786-0 = test system: 786-0
A498 = test system: A498
A549 = test system: A549
ACHN = test system: ACHN
CCRF-CEM = test system: CCRF-CEM
COLO 205 = test system: COLO 205
DLD-1 = test system: DLD-1
DMS-114 = test system: DMS-114
DMS-273 = test system: DMS-273
EKVX = test system: EKVX
HCC 2998 = test system: HCC 2998
HCT-116 = test system: HCT-116
HCT-15 = test system: HCT-15
HL-60 = test system: HL-60
HOP-18 = test system: HOP-18
HOP-62 = test system: HOP-62
HT-29 = test system: HT-29
IGROV-1 = test system: IGROV-1
K562 = test system: K562
KM-20L2 = test system: KM-20L2
KM12 = test system: KM12
LOX IMVI = test system: LOX IMVI
LXFL 529 = test system: LXFL 529
M14 = test system: M14
M19-MEL = test system: M19-MEL
MOLT-4 = test system: MOLT-4
Malme-3M = test system: Malme-3M
NCI-H226 = test system: NCI-H226
NCI-H23 = test system: NCI-H23
NCI-H460 = test system: NCI-H460
NCI-H522 = test system: NCI-H522
OVCAR-3 = test system: OVCAR-3
OVCAR-4 = test system: OVCAR-4
OVCAR-5 = test system: OVCAR-5
OVCAR-8 = test system: OVCAR-8
RPMI-8226 = test system: RPMI-8226
RXF 393 = test system: RXF 393
SF-268 = test system: SF-268
SF-295 = test system: SF-295
SF-539 = test system: SF-539
SK-MEL-28 = test system: SK-MEL-28
SK-MEL-2 = test system: SK-MEL-2
SK-MEL-5 = test system: SK-MEL-5
SK-OV-3 = test system: SK-OV-3
SN12C = test system: SN12C
SNB-78 = test system: SNB-78
SR = test system: SR
SW-620 = test system: SW-620
TK-10 = test system: TK-10
U-251 = test system: U-251
UACC-257 = test system: UACC-257
UACC-62 = test system: UACC-62
XF498 = test system: XF498
CAKI-1 = test system: CAKI-1
HOP-92 = test system: HOP-92
SNB-19 = test system: SNB-19
SNB-75 = test system: SNB-75
UO-31 = test system: UO-31

C=C1Cc2cc(OC)c(OC)c(OC)c2-c2ccc(SC)c(=O)cc21
GI50 (786-0): < 0.01 µM (active)
GI50 (A498): < 0.01 µM (active)
GI50 (A549): < 0.01 µM (active)
GI50 (ACHN): < 0.01 µM (active)
GI50 (CCRF-CEM): < 0.01 µM (active)
GI50 (COLO 205): < 0.01 µM (active)
GI50 (DLD-1): < 0.01 µM (active)
GI50 (DMS-114): < 0.01 µM (active)
GI50 (DMS-273): < 0.01 µM (active)
GI50 (EKVX): 1.55 µM (inactive)
GI50 (HCC 2998): < 0.01 µM (active)
GI50 (HCT-116): < 0.01 µM (active)
GI50 (HCT-15): < 0.01 µM
GI50 (HL-60): < 0.01 µM (active)
GI50 (HOP-18): 4.92 µM (inactive)
GI50 (HOP-62): < 0.01 µM (active)
GI50 (HT-29): < 0.01 µM (active)
GI50 (IGROV-1): < 0.0424 µM (active)
GI50 (K562): < 0.01 µM (active)
GI50 (KM-20L2): < 0.01 µM (active)
GI50 (KM12): < 0.01 µM (active)
GI50 (LOX IMVI): < 0.01 µM (active)
GI50 (LXFL 529): < 0.01 µM (active)
GI50 (M14): < 0.01 µM (active)
GI50 (M19-MEL): < 0.01 µM (active)
GI50 (MOLT-4): < 0.01 µM (active)
GI50 (Malme-3M): < 0.01 µM (active)
GI50 (NCI-H226): < 0.01 µM (active)
GI50 (NCI-H23): < 0.01 µM (active)
GI50 (NCI-H460): < 0.01 µM (active)
GI50 (NCI-H522): < 0.01 µM (active)
GI50 (OVCAR-3): < 0.01 µM (active)
GI50 (OVCAR-4): 4.26 µM (inactive)
GI50 (OVCAR-5): 0.378 µM (active)
GI50 (OVCAR-8): < 0.01 µM (active)
GI50 (RPMI-8226): < 0.01 µM (active)
GI50 (RXF 393): < 0.01 µM (active)
GI50 (SF-268): < 0.01 µM (active)
GI50 (SF-295): < 0.01 µM (active)
GI50 (SF-539): < 0.01 µM (active)
GI50 (SK-MEL-28): < 0.01 µM (active)
GI50 (SK-MEL-2): < 0.01 µM (active)
GI50 (SK-MEL-5): < 0.01 µM (active)
GI50 (SK-OV-3): < 0.01 µM (active)
GI50 (SN12C): < 0.01 µM (active)
GI50 (SNB-78): < 0.01 µM (active)
GI50 (SR): < 0.01 µM (active)
GI50 (SW-620): < 0.01 µM (active)
GI50 (TK-10): 0.916 µM (active)
GI50 (U-251): < 0.01 µM (active)
GI50 (UACC-257): 0.361 µM (active)
GI50 (UACC-62): < 0.01 µM (active)
GI50 (XF498): < 0.01 µM (active)

COC(=O)/C(=N\Nc1nnc(C)n1N)C(C#N)c1ccc(Cl)cc1 (stereo not given)
GI50 (786-0): 34.7 µM (inactive)
GI50 (A498): > 100 µM (inactive)
GI50 (A549): > 100 µM (inactive)
GI50 (ACHN): > 100 µM (inactive)
GI50 (CAKI-1): > 100 µM (inactive)
GI50 (COLO 205): 95.1 µM (inactive)
GI50 (DLD-1): > 100 µM (inactive)
GI50 (DMS-114): 58.1 µM (inactive)
GI50 (DMS-273): > 100 µM (inactive)
GI50 (EKVX): > 100 µM (inactive)
GI50 (HCC 2998): > 100 µM (inactive)
GI50 (HCT-116): > 100 µM (inactive)
GI50 (HCT-15): > 100 µM
GI50 (HOP-18): > 100 µM (inactive)
GI50 (HOP-62): > 100 µM (inactive)
GI50 (HOP-92): > 100 µM (inactive)
GI50 (HT-29): > 100 µM (inactive)
GI50 (IGROV-1): > 100 µM (inactive)
GI50 (KM-20L2): > 100 µM (inactive)
GI50 (KM12): > 100 µM (inactive)
GI50 (LOX IMVI): > 100 µM (inactive)
GI50 (LXFL 529): > 100 µM (inactive)
GI50 (M14): > 100 µM (inactive)
GI50 (M19-MEL): > 100 µM (inactive)
GI50 (Malme-3M): > 100 µM (inactive)
GI50 (NCI-H226): > 100 µM (inactive)
GI50 (NCI-H23): > 100 µM (inactive)
GI50 (NCI-H460): > 100 µM (inactive)
GI50 (OVCAR-3): > 100 µM (inactive)
GI50 (OVCAR-4): > 100 µM (inactive)
GI50 (OVCAR-5): > 100 µM (inactive)
GI50 (OVCAR-8): > 100 µM (inactive)
GI50 (RPMI-8226): > 100 µM (inactive)
GI50 (RXF 393): > 100 µM (inactive)
GI50 (SF-268): > 100 µM (inactive)
GI50 (SF-295): > 100 µM (inactive)
GI50 (SF-539): > 100 µM (inactive)
GI50 (SK-MEL-28): > 100 µM (inactive)
GI50 (SK-MEL-2): > 100 µM (inactive)
GI50 (SK-OV-3): > 100 µM (inactive)
GI50 (SN12C): > 100 µM (inactive)
GI50 (SNB-19): > 100 µM (inactive)
GI50 (SNB-75): > 100 µM (inactive)
GI50 (SNB-78): > 100 µM (inactive)
GI50 (SW-620): > 100 µM (inactive)
GI50 (TK-10): > 100 µM (inactive)
GI50 (U-251): > 100 µM (inactive)
GI50 (UACC-257): > 100 µM (inactive)
GI50 (UACC-62): > 100 µM (inactive)
GI50 (UO-31): > 100 µM (inactive)
GI50 (XF498): > 100 µM (inactive)

N#CC(C(=O)/C(=N\Nc1nc(S)nn1N)C(C#N)c1ccc(Cl)cc1)c1ccc(Cl)cc1 (stereo not given)
GI50 (786-0): > 100 µM (inactive)
GI50 (A498): > 100 µM (inactive)
GI50 (A549): > 100 µM (inactive)
GI50 (ACHN): > 100 µM (inactive)
GI50 (CAKI-1): > 100 µM (inactive)
GI50 (COLO 205): > 100 µM (inactive)
GI50 (DLD-1): > 100 µM (inactive)
GI50 (DMS-114): > 100 µM (inactive)
GI50 (DMS-273): > 100 µM (inactive)
GI50 (EKVX): > 100 µM (inactive)
GI50 (HCC 2998): > 100 µM (inactive)
GI50 (HCT-116): > 100 µM (inactive)
GI50 (HCT-15): > 100 µM
GI50 (HOP-18): > 100 µM (inactive)
GI50 (HOP-62): > 100 µM (inactive)
GI50 (HOP-92): > 100 µM (inactive)
GI50 (HT-29): > 100 µM (inactive)
GI50 (IGROV-1): > 100 µM (inactive)
GI50 (KM-20L2): > 100 µM (inactive)
GI50 (KM12): > 100 µM (inactive)
GI50 (LOX IMVI): > 100 µM (inactive)
GI50 (LXFL 529): > 100 µM (inactive)
GI50 (M14): > 100 µM (inactive)
GI50 (M19-MEL): > 100 µM (inactive)
GI50 (Malme-3M): > 100 µM (inactive)
GI50 (NCI-H226): > 100 µM (inactive)
GI50 (NCI-H23): > 100 µM (inactive)
GI50 (NCI-H460): > 100 µM (inactive)
GI50 (OVCAR-3): > 100 µM (inactive)
GI50 (OVCAR-4): > 100 µM (inactive)
GI50 (OVCAR-5): > 100 µM (inactive)
GI50 (OVCAR-8): > 100 µM (inactive)
GI50 (RPMI-8226): > 100 µM (inactive)
GI50 (RXF 393): > 100 µM (inactive)
GI50 (SF-268): > 100 µM (inactive)
GI50 (SF-295): > 100 µM (inactive)
GI50 (SF-539): > 100 µM (inactive)
GI50 (SK-MEL-28): > 100 µM (inactive)
GI50 (SK-MEL-2): > 100 µM (inactive)
GI50 (SK-OV-3): > 100 µM (inactive)
GI50 (SN12C): > 100 µM (inactive)
GI50 (SNB-19): > 100 µM (inactive)
GI50 (SNB-75): > 100 µM (inactive)
GI50 (SNB-78): > 100 µM (inactive)
GI50 (SW-620): > 100 µM (inactive)
GI50 (TK-10): > 100 µM (inactive)
GI50 (U-251): > 100 µM (inactive)
GI50 (UACC-257): > 100 µM (inactive)
GI50 (UACC-62): > 100 µM (inactive)
GI50 (UO-31): > 100 µM (inactive)
GI50 (XF498): > 100 µM (inactive)
